Experimental findings from ChEMBL document CHEMBL2417364, “Acetylated dammarane-type bisdesmosides from Combretum inflatum” (J Nat Prod, 2013) are described below.

One experiment concerns Escherichia coli. Kind of experiment: Inhibition of biofilm formation in Escherichia coli UTI89 after 72 hrs by crystal violet staining. The class given is functional, organism-based. Particulars: UTI89, 72 h.
The subject of another experiment is Staphylococcus aureus. As to the kind of experiment: Antibacterial activity against methicillin-resistant Staphylococcus aureus clinical isolate 108 at 16 ug/ml after 24 hrs by broth microdilution method. In kind it is functional.
The test system of the next experiment is NCI-H460. As to the kind of experiment: Cytotoxicity against human NCI-H460 cells after 72 hrs. The class given is functional, cell-based. Particulars: NCI-H460, 72 h.

What is called IC50 is the midpoint of a concentration-inhibition curve. Low readings indicate inhibition by little substance, high ones a need for much substance.

In the case of `CC(=O)O[C@@H]1[C@H](O[C@@H]2O[C@H](C)[C@@H](O)[C@H](O)[C@H]2O)C[C@]2(C)[C@H]3[C@H](O[C@@H]4O[C@H](C)[C@H](O)[C@H](O)[C@H]4O)C[C@@H]4[C@@H](/C(C)=C/CCC(C)(C)O)CC[C@@]4(C)[C@]3(C)CC[C@H]2C1(C)C`, in the experiment with Escherichia coli, the half-maximal inhibitory concentration (IC50) was ≥ 30 µg/mL. This molecule registered an Activity with Staphylococcus aureus of 64%. Take `CC(=O)O[C@@H]1[C@H](O[C@@H]2O[C@H](C)[C@H](O)[C@H](O)[C@H]2O)C[C@]2(C)[C@H]3[C@H](O[C@@H]4O[C@H](C)[C@H](O)[C@H](O)[C@H]4O)C[C@@H]4[C@@H]([C@](C)(O)CCCC(C)(C)O)CC[C@@]4(C)[C@]3(C)CC[C@H]2C1(C)C`: the IC50 in the experiment on Escherichia coli was ≥ 30 µg/mL.

As to `CC(=O)O[C@@H]1[C@H](O[C@@H]2O[C@H](C)[C@H](O)[C@H](O)[C@H]2O)C[C@]2(C)[C@H]3[C@H](O[C@@H]4O[C@H](C)[C@H](O)[C@H](O)[C@H]4O)C[C@@H]4[C@@H]([C@@](C)(O)CCC=C(C)C)CC[C@@]4(C)[C@]3(C)CC[C@H]2C1(C)C`, the IC50 in the experiment on Escherichia coli is ≥ 30 µg/mL; in the experiment with NCI-H460, 3.9 µM. In the experiment on Staphylococcus aureus, this molecule returned an Activity of 49%. In the case of `CC(=O)O[C@@H]1[C@H](O[C@@H]2O[C@H](C)[C@H](O)[C@H](O)[C@H]2O)C[C@]2(C)[C@H]3[C@H](O[C@@H]4O[C@H](C)[C@H](O)[C@H](O)[C@H]4O)C[C@@H]4[C@@H]([C@](C)(O)CCC=C(C)C)CC[C@@]4(C)[C@]3(C)CC[C@H]2C1(C)C`, the 50% inhibitory concentration (IC50) with Escherichia coli was ≥ 30 µg/mL. This molecule returned an Activity with Staphylococcus aureus of 45%. `CC(=O)O[C@@H]1[C@H](O[C@@H]2O[C@H](C)[C@@H](O)[C@H](O)[C@H]2O)C[C@]2(C)[C@H]3[C@H](O[C@@H]4O[C@H](C)[C@H](O)[C@H](O)[C@H]4O)C[C@@H]4[C@@H]([C@](C)(O)CCCC(C)(C)O)CC[C@@]4(C)[C@]3(C)CC[C@H]2C1(C)C`: the IC50 with Escherichia coli was ≥ 30 µg/mL.

With `CC(=O)O[C@@H]1[C@H](O[C@@H]2O[C@H](C)[C@H](O)[C@H](O)[C@H]2O)C[C@]2(C)[C@H]3[C@H](O[C@@H]4O[C@H](C)[C@H](O)[C@H](O)[C@H]4O)C[C@@H]4[C@@H](/C(C)=C/CCC(C)(C)O)CC[C@@]4(C)[C@]3(C)CC[C@H]2C1(C)C`, the IC50 in the experiment with Escherichia coli was ≥ 30 µg/mL. Moreover, in the experiment with Staphylococcus aureus, the Activity is on record as 71%. As to `CC(=O)O[C@@H]1[C@H](O[C@@H]2O[C@H](C)[C@@H](O)[C@H](O)[C@H]2O)C[C@]2(C)[C@H]3[C@H](O[C@@H]4O[C@H](C)[C@H](O)[C@H](O)[C@H]4O)C[C@@H]4[C@@H]([C@](C)(O)CCC=C(C)C)CC[C@@]4(C)[C@]3(C)CC[C@H]2C1(C)C`, the half-maximal inhibitory concentration (IC50) with Escherichia coli is ≥ 30 µg/mL. In the experiment on Staphylococcus aureus, this molecule returned an Activity of 51%.
